The Km is the substrate concentration at which the rate is half of its maximum.

The target in one test is IPDC (Salmonella enterica, UniProt H9L492). The following applies: ketoleucine vs ketovaline.
A further test concerns KIVD. Conditions: Yep et al., Bioorg. Chem. 34:325-336 (2006); cited from earlier work.

Sequence of IPDC (H9L492 1-550): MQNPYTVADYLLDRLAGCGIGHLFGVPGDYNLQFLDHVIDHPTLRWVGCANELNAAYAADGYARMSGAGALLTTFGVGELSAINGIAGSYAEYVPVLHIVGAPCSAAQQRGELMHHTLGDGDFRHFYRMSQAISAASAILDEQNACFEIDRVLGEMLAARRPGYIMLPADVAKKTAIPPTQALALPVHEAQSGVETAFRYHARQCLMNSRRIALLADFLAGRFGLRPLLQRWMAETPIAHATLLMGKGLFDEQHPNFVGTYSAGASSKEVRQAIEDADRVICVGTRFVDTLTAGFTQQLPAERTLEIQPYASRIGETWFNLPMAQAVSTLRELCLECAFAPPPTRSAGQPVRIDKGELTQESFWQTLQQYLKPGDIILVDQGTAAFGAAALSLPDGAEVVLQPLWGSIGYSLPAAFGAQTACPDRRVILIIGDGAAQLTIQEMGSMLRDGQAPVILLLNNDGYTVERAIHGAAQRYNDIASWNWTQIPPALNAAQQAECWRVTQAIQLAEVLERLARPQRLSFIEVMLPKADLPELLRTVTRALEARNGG

As to `CC(C)CC(=O)C(=O)O` [ketoleucine], at IPDC, the “specificity constant kcat/Km of IPDC, fold higher than towards ketovaline” value is recorded as 4 fold. In the test on KIVD, the Michaelis-Menten constant (Km) was 37 mM and the “kcat of KIVD” value was 49 s⁻¹.

Consider `CC(C)C(=O)C(=O)O` [ketovaline], for which, in the test with KIVD, the Km is 2.8 mM and the “kcat of KIVD” value is 48 s⁻¹.

Source of the values: patent publication US20140329275A1, “BIOCATALYSIS CELLS AND METHODS” (REGENTS OF THE UNIVERSITY OF MINNESOTA, priority 2011, published 2014).
